Experimental data: patent publication US8563729B2, “Thienopyridone derivatives as AMP-activated protein kinase (AMPK) activators” (Merck Patent GmbH, priority 2008, dated 2013)

Assays:
[1] = target: T1, AMPK protein (recombinant α1β1γ2) (Homo sapiens, UniProt Q13131+Q9Y478); assay: AMPK enzymatic activity (Delfia, AMARA peptide substrate); type: biochemical; conditions: compound 30 μM vs AMP 30 μM; 125 μM ATP; ratio 90% or higher = direct activator
T1 construct: made in house; host or cells: E. coli
T1 sequence (Q13131 whole entry): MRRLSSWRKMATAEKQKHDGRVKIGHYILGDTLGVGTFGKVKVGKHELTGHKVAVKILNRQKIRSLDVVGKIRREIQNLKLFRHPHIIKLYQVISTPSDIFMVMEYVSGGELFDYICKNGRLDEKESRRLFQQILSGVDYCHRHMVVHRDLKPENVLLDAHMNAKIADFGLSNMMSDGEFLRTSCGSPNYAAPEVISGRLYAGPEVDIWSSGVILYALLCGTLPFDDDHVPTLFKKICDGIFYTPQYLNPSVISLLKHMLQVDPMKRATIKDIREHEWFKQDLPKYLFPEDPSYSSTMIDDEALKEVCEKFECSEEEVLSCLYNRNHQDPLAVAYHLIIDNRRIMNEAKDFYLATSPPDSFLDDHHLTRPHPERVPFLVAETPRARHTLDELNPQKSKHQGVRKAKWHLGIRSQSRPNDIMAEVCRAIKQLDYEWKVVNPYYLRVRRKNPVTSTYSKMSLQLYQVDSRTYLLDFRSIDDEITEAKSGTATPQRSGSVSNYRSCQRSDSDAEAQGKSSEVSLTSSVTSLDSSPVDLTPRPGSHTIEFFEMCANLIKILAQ
T1 sequence (Q9Y478 whole entry): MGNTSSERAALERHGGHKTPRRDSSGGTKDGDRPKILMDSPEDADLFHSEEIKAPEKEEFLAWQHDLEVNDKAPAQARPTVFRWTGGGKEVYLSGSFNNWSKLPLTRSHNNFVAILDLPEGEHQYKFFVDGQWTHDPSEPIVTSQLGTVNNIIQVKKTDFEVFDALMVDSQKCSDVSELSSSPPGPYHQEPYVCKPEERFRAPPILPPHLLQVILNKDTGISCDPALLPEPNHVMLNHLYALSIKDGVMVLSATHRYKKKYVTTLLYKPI
T1 sequence (Q9UGJ0 whole entry partner): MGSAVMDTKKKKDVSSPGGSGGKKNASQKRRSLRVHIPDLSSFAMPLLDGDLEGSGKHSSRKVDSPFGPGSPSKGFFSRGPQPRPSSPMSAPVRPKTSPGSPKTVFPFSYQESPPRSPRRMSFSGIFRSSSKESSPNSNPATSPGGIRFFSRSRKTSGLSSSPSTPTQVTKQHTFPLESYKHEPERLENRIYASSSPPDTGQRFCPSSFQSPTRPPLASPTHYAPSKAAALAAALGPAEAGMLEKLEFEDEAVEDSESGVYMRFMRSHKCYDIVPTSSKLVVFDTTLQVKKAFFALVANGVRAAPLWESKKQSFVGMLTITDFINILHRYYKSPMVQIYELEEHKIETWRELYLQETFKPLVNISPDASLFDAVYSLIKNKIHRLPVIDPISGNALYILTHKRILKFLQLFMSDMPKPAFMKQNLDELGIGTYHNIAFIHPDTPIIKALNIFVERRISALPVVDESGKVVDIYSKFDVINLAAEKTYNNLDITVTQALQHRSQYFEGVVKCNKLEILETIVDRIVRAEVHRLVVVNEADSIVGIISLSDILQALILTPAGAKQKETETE
Method: The following biological test allows the determination of the efficacy of such compounds of formula (I) onto AMPK protein (recombinant α1β1γ2).
Human recombinant AMPK enzyme was expressed in E. Coli and was reactivated in vitro by LKB1 prior to enzyme activity determination.
AMPK enzyme activities were assayed by using A Delfia technology. AMPK enzyme activities were carried out in microtiter plates (50 mM Hepes buffer, pH 7.4 with 125 μM ATP respectively) in the presence of a synthetic peptide substrate (AMARAASAAALARRR, the “AMARA” peptide) and activators in serial dilutions. Reactions were initiated by the addition of AMPK (50-100 ng). Following mixing, the plates were incubated for 30 min at room temperature. Enzyme activity was assayed by using an anti-phosphoserine antibody to measure the quantity of phosphate incorporated into the AMARAA.
(§1) N°: Number of the molecule
Activity: Ratio between the % of control (basal activity) of compound of formula (I) at 30 μM and the % of control (basal activity) of AMP (natural substrate) at 30 μM.
Compounds of formula (I) in the table II are considered as direct activator of AMPK if the ratio is 90% or higher.

H-2 Kb cells = assay: Glucose uptake in H-2 Kb cells (in vitro cellular test); type: cell-based, mouse; conditions: H-2 Kb cells differentiated in muscle, 4 hours incubation, 2-deoxy-D-[1,2 3H] glucose uptake 10 min
Method: Glucose Uptake in H-2 Kb Cells (In Vitro Cellular Test)
The following cellular test allows the determination of the effect of AMPK activators such as compounds of formula (I) onto glucose uptake in a muscle cellular model.
H-1-2 Kb cells derived from heterozygous H-2 Kb tsA58 transgenic mouse were grown in 24-well in plates coated with matrigel and were cultured at 33° C. for 4 days under permissive conditions, as described previously by Fryer et al. (Diabetes 49 (12): 1978, 2000).
For differentiation in muscle, cells were switched to non-permissive culture conditions (37° C. in the absence of interferon-γ). After 3 days, cells were incubated for 4 hours in DMEM 1 g/l glucose culture medium containing different concentrations of the tested molecules. Then glucose uptake was measured by incubating the cells for 10 min with radiolabelled 2-deoxy-D-[1,2 ^3H] glucose. Glucose uptake was terminated by rapidly washing the plates 2 times with ice-cold NaCl 0.9%. The cells were then solubilized in 0.1N NaOH for 30 min. Radioactivity was determined by liquid scintillation counting.
as §1
Activity (table III): Concentration of compound (I) for a glucose uptake equal or higher to glucose uptake induced by insulin (170 nM)
^++ or **concentration of compound (I) ≦10 micro Molar
^+ or *concentration of compound (I) >10 micro Molar

Row | Compound | activity: Ratio between the % of control (basal activity) of compound of formula (I) at 30 μM and the % of control (basal activity) of AMP at 30 μM [1] | Activity (table III): Concentration of compound (I) for a glucose uptake equal or higher to glucose uptake induced by insulin (170 nM) (H-2 Kb cells)
1 | O=c1[nH]c2sc(Cl)c(-c3cccc(F)c3)c2c(O)c1-c1ccccc1 [Compound 126] | 98% | * (^+ or *concentration of compound (I) >10 micro Molar)
2 | CCc1ccc(-c2c(Cl)sc3[nH]c(=O)c(-c4ccccc4)c(O)c23)cc1 [Compound 181] | 559% | ++ (^++ or **concentration of compound (I) ≦10 micro Molar)
3 | CCCc1ccc(-c2c(Cl)sc3[nH]c(=O)c(-c4ccccc4)c(O)c23)cc1 [Compound 183] | 146% | + (^+ or *concentration of compound (I) >10 micro Molar)
4 | N#Cc1sc2[nH]c(=O)c(-c3ccccc3)c(O)c2c1-c1ccccc1 [Compound 9, 2-cyano-3,5-diphenyl-4-hydroxy-6,7-dihydro-thieno[2,3-]pyridin-6-one] | 410% | * (^+ or *concentration of compound (I) >10 micro Molar)
5 | CC(C)c1ccc(-c2c(Cl)sc3[nH]c(=O)c(-c4ccccc4)c(O)c23)cc1 [Compound 182] | 165% | + (^+ or *concentration of compound (I) >10 micro Molar)
6 | Cc1cccc(-c2c(Cl)sc3[nH]c(=O)c(-c4ccccc4)c(O)c23)c1 [Compound 125] | 101% | ** (^++ or **concentration of compound (I) ≦10 micro Molar)
7 | O=c1[nH]c2sc(Cl)c(-c3ccc(F)cc3O)c2c(O)c1-c1ccc(F)cc1 [Compound 213] | 349% | + (^+ or *concentration of compound (I) >10 micro Molar)
8 | Cc1ccc(-c2c(Cl)sc3[nH]c(=O)c(-c4ccc(F)cc4)c(O)c23)c(O)c1F [Compound 206] | 184% | + (^+ or *concentration of compound (I) >10 micro Molar)
9 | CCc1ccc(-c2c(Cl)sc3[nH]c(=O)c(-c4ccccc4)c(O)c23)c(O)c1 [Compound 209] | 297% | ++ (^++ or **concentration of compound (I) ≦10 micro Molar)
10 | Cc1ccc(-c2c(Cl)sc3[nH]c(=O)c(-c4cccc(C(=O)O)c4)c(O)c23)c(O)c1 [Compound 192] | 193% | ++ (^++ or **concentration of compound (I) ≦10 micro Molar)
11 | O=c1[nH]c2sc(Cl)c(-c3ccccc3)c2c(O)c1-c1cccs1 [Compound 168] | 174% | ++ (^++ or **concentration of compound (I) ≦10 micro Molar)
